Reference: the NIST ThermoML archive (doi:10.1016/j.jct.2016.03.026)

Assay: xn = mol fraction of the nth substance listed
Settings: 263.15 K, Fluid (supercritical or subcritical phases), Vibrating tube method, x1 = 0.97

O=C=O [carbon dioxide] + CO
Settings	mass density [kg/m3]
7525 kPa	1006.96
7550 kPa	1007.04
7575 kPa	1007.2
7600 kPa	1007.28
7625 kPa	1007.38
7650 kPa	1007.53
7675 kPa	1007.61
7700 kPa	1007.76
7725 kPa	1007.86
7750 kPa	1007.94
7775 kPa	1008.1
7800 kPa	1008.18
7825 kPa	1008.35
7850 kPa	1008.43
7875 kPa	1008.51
7900 kPa	1008.68
7925 kPa	1008.76
7950 kPa	1008.84
7975 kPa	1009
8000 kPa	1009.08
8025 kPa	1009.16
8050 kPa	1009.33
8075 kPa	1009.41
8100 kPa	1009.54
8125 kPa	1009.66
8150 kPa	1009.74
8175 kPa	1009.86
8200 kPa	1009.98
8225 kPa	1010.06
8250 kPa	1010.23
8275 kPa	1010.31
8300 kPa	1010.39
8325 kPa	1010.56
8350 kPa	1010.64
8375 kPa	1010.74
8400 kPa	1010.88
8425 kPa	1010.96
8450 kPa	1011.04
8475 kPa	1011.21
8500 kPa	1011.29
8525 kPa	1011.44
8550 kPa	1011.54
8575 kPa	1011.62
8600 kPa	1011.73
8625 kPa	1011.86
8650 kPa	1011.94
8675 kPa	1012.05
8700 kPa	1012.19
8725 kPa	1012.27
8750 kPa	1012.41
8775 kPa	1012.52
8800 kPa	1012.6
8825 kPa	1012.76
8850 kPa	1012.85
8875 kPa	1012.93
8900 kPa	1013.03
8925 kPa	1013.17
8950 kPa	1013.25
8975 kPa	1013.35
9000 kPa	1013.49
9025 kPa	1013.58
9050 kPa	1013.66
9075 kPa	1013.83
9100 kPa	1013.91
9125 kPa	1013.99
9150 kPa	1014.08
9175 kPa	1014.23
9200 kPa	1014.31
9225 kPa	1014.39
9250 kPa	1014.56
9275 kPa	1014.64
9300 kPa	1014.72
9325 kPa	1014.89
9350 kPa	1014.97
9375 kPa	1015.05
9400 kPa	1015.13
9425 kPa	1015.3
9450 kPa	1015.38
9475 kPa	1015.46
9500 kPa	1015.54
9525 kPa	1015.7
9550 kPa	1015.78
9575 kPa	1015.87
9600 kPa	1016.03
9625 kPa	1016.11
9650 kPa	1016.19
9675 kPa	1016.28
9700 kPa	1016.44
9725 kPa	1016.52
9750 kPa	1016.6
9775 kPa	1016.77
9800 kPa	1016.85
9825 kPa	1016.93
9850 kPa	1017.01
9875 kPa	1017.17
9900 kPa	1017.25
9925 kPa	1017.34
9950 kPa	1017.47
9975 kPa	1017.58
10000 kPa	1017.66
10025 kPa	1017.74
10050 kPa	1017.83
10075 kPa	1017.99
10100 kPa	1018.07
10125 kPa	1018.15
10150 kPa	1018.23
10175 kPa	1018.34
10200 kPa	1018.48
10225 kPa	1018.56
10250 kPa	1018.68
10275 kPa	1018.81
10300 kPa	1018.89
10325 kPa	1018.97
10350 kPa	1019.09
10375 kPa	1019.21
10400 kPa	1019.3
10425 kPa	1019.38
10450 kPa	1019.46
10475 kPa	1019.62
10500 kPa	1019.7
10525 kPa	1019.78
10550 kPa	1019.87
10575 kPa	1020.02
10600 kPa	1020.11
10625 kPa	1020.19
10650 kPa	1020.27
10675 kPa	1020.44
10700 kPa	1020.52
10725 kPa	1020.6
10750 kPa	1020.68
10775 kPa	1020.76
10800 kPa	1020.93
10825 kPa	1021.01
10850 kPa	1021.09
10875 kPa	1021.17
10900 kPa	1021.25
10925 kPa	1021.42
10950 kPa	1021.5
10975 kPa	1021.58
11000 kPa	1021.66
11025 kPa	1021.83
11050 kPa	1021.91
11075 kPa	1021.99
11100 kPa	1022.07
11125 kPa	1022.15
11150 kPa	1022.29
11175 kPa	1022.4
11200 kPa	1022.48
11225 kPa	1022.56
11250 kPa	1022.64
11275 kPa	1022.8
11300 kPa	1022.89
11325 kPa	1022.97
11350 kPa	1023.05
11375 kPa	1023.13
11400 kPa	1023.29
11425 kPa	1023.38
11450 kPa	1023.46
11475 kPa	1023.54
11500 kPa	1023.62
11525 kPa	1023.75
11550 kPa	1023.86
11575 kPa	1023.95
11600 kPa	1024.03
11625 kPa	1024.11
11650 kPa	1024.21
11675 kPa	1024.35
11700 kPa	1024.44
11725 kPa	1024.52
11750 kPa	1024.6
11775 kPa	1024.74
11800 kPa	1024.84
11825 kPa	1024.93
11850 kPa	1025.01
11875 kPa	1025.09
11900 kPa	1025.19
11925 kPa	1025.29
11950 kPa	1025.41
11975 kPa	1025.5
12000 kPa	1025.58
12025 kPa	1025.66
12050 kPa	1025.75
12075 kPa	1025.9
12100 kPa	1025.98
12125 kPa	1026.07
12150 kPa	1026.15
12175 kPa	1026.31
12200 kPa	1026.39
12225 kPa	1026.47
12250 kPa	1026.56
12275 kPa	1026.64
12300 kPa	1026.72
12325 kPa	1026.88
12350 kPa	1026.96
12375 kPa	1027.05
12400 kPa	1027.13
12425 kPa	1027.21
12450 kPa	1027.29
12475 kPa	1027.38
12500 kPa	1027.53
12525 kPa	1027.62
12550 kPa	1027.7
12575 kPa	1027.78
12600 kPa	1027.86
12625 kPa	1027.96
12650 kPa	1028.09
12675 kPa	1028.19
12700 kPa	1028.27
12725 kPa	1028.35
12750 kPa	1028.43
12775 kPa	1028.51
12800 kPa	1028.6
12825 kPa	1028.76
12850 kPa	1028.84
12875 kPa	1028.92
12900 kPa	1029
12925 kPa	1029.08
12950 kPa	1029.2
12975 kPa	1029.3
13000 kPa	1029.41
13025 kPa	1029.49
13050 kPa	1029.57
13075 kPa	1029.65
13100 kPa	1029.73
13125 kPa	1029.88
13150 kPa	1029.94
13175 kPa	1030.06
13200 kPa	1030.14
13225 kPa	1030.22
13250 kPa	1030.31
13275 kPa	1030.39
13300 kPa	1030.53
13325 kPa	1030.63
13350 kPa	1030.71
13375 kPa	1030.8
13400 kPa	1030.88
13425 kPa	1030.96
13450 kPa	1031.04
13475 kPa	1031.14
13500 kPa	1031.29
13525 kPa	1031.37
13550 kPa	1031.45
13575 kPa	1031.53
13600 kPa	1031.61
